# Test results from patent publication EP0603240B1, “SAFENING HERBICIDAL PYRAZOLYLSULFONYLUREAS” (priority 1991, dated 1993).
# Experiments:
# Assay type in all cases: in vivo
# [1] = system: corn; experiment: Example 26, field trials, preemergence surface application (PRE): corn growth reduction
# Protocol: In order to better understand and to confirm the results of greenhouse tests with herbicidal compositions comprising representative compounds according to Formula I and an antidote with and without a co-herbicide, a large number of field trials were conducted. This example provides a summary of those field trials.
# The primary purpose of the field trials summarized herein was to ascertain the amount of corn injury caused by a compound according to Formula I. viz. Herbicide No. 1, with and without a co-herbicide of the α-chloroacetanilide class, viz., Herbicide Nos. 6 and 7, and the extent that any corn injury could be safened by a dichloroacetamide antidotal compound, viz., Antidote No. 15.
# Corn injury is generally expressed, in broad terms, in stand reduction, growth reduction, malformed plants and other more specific effects. For purposes of the summary here, the results of a plurality of field trials are expressed in terms of growth reduction (GR), i.e., a significant reduction in plant height of the corn stand. A common criteria for commercially-acceptable corn injury is an amount equal to or less than 10% malformed plants or stand reduction and for present reporting purposes, no greater than about 15% growth reduction. The corn injury/safening described for these field trials refers to commercially-unacceptable to commercially-acceptable performance.
# In the field trials from a wide distribution of trial locations, soil types (all having in excess of 2% organic matter), climatic effects, etc., the test chemicals were applied as tank mixes in various modes of application, i.e., pre-plant incorporation (PPI) and preemergence surface application (PRE). Test plots were small plots with three replications in a randomized complete block design. Observations were made and recorded in a period of from 31-50 days after treatment.
# [2] = system: corn; experiment: Example 13, Procedure II: Herbicide No. 1 + acetochlor (No. 6) with dichloroacetamide antidotes
# Protocol: (§1) Containers were filled and compacted with a fumigated silt loam top soil to a depth of about 1.3 cm from the top of the container. A first container was designated as an untreated control, a second container was designated as a herbicide control, and a third container was designated as a herbicide + antidote test container. Each of the containers was seeded with a crop species. A measured amount of herbicide dispersed or dissolved in acetone was applied to a measured quantity of soil. To this same quantity of soil treated with herbicide, there was added a measured amount of antidote dispersed or dissolved in acetone. The quantity of soil treated with the herbicide and antidote was thoroughly mixed to incorporate the herbicide and antidote in the soil uniformly. The seed bed in the third container of soil was covered with the soil treated with the herbicide and antidote and the container was leveled. For each test series, the seed beds of the first and second containers were likewise covered by soil layers. the cover layer of the first container was not treated with herbicide or antidote.
# (§2) The containers were then placed on a bench in a greenhouse and sub-irrigated as required for the duration of the test. […] Plant response is measured in terms of percent injury. Antidote efficacy is indicated as the difference in plant injury by the herbicide(s) without the antidote and with the antidote.
# (§3) This procedure is the same as Procedure I, but modified in the manner that after incorporation of the chemicals (herbicide and antidote) the containers with the covered seedbed were treated with an initial overhead irrigation equivalent to 0.6 cm rainfall, then subsequently sub-irrigated as required on greenhouse benches.
# In this example a plurality of dichloroacetamide antidotes were tested for their safening efficacy against a herbicidal composition comprising Herbicide No. 1 and a co-herbicide, acetochlor (Herbicide No. 6) in corn in the presence of velvetleaf. The procedure used in this example was Procedure II above.
# [3] = system: corn; experiment: Example 20, Procedure II: Herbicide No. 1 + EPTC or ERADICANE EXTRA with Antidote Nos. 5 and 15
# Protocol: as §1, §2, §3
# This example describes experiments designed to test two generally efficacious antidotal compounds, i.e., Antidote Nos. 5 and 15, against the herbicidal action of the sulfonylurea compound, Herbicide No. 1, and the commercial herbicides EPTC (Herbicide No. 4) and ERADICANE® EXTRA (EPTC + R-29148, Antidote No. 5). Procedure II above was used in conducting these experiments. Formulations of EPTC and ERADICANE EXTRA were applied onto soil cover layers (to be applied over seed beds), followed by sequential pipetting of Herbicide No. 1 and Antidote No. 15. The soil was mixed to homogeneity and spread over the seed beds followed by 0.6 cm of overhead irrigation.
# [4] = system: barnyardgrass (Echinochloa crusgalli); experiment: Example 4, Procedure I: Antidote Nos. 15 and 16 against Herbicide No. 1; details: no antidote, average of two replicates
# Protocol: as §1, §2
# (§4) In the series of greenhouse tests described below, for routine screening purposes the herbicide/antidote compositions were tested in crop/weed combinations involving corn as the crop and either or both of the weeds barnyardgrass (Echinochloa crusgalli), a monocotyledonous weed, and velvetleaf (Abutilon theophrasti), a dicotyledonous weed. In the tables below, these weeds are indicated by the symbols "BYG" and "VL", respectively.
# (§5) This example describes tests with Antidote Nos. 15 and 16 to safen Herbicide No. 1 according to Procedure I using corn and the weeds barnyardgrass and velvetleaf as the test plants.
# [5] = system: velvetleaf (Abutilon theophrasti); experiment: as above; details: no antidote, average of two replicates
# Protocol: as §1, §2, §4, §5
# [6] = system: barnyardgrass (Echinochloa crusgalli); experiment: Example 3, Procedure I: antidotes against Herbicide No. 1; details: no antidote
# Protocol: as §1, §2, §4
# This example details the results of tests with Antidote Nos. 12, 15 and 16 to safen Herbicide No. 1 over application rates ranging from 4.48 kg/ha down to 0.56 kg/ha, in corn in the presence of barnyardgrass. Procedure I described above was used in these tests.
# [7] = system: corn; experiment: Example 16, Procedure II: Herbicide No. 1 + EPTC (No. 4, EPTAM) with antidotes
# Protocol: as §1, §2, §3
# The test procedure used in these experiments was that of Procedure II described above. The antidotes were applied to a soil cover layer by pipet after spraying the herbicides onto the soil, followed by incorporation and overhead irrigation. […]
# [8] = Herbicide No.1 0.56 kg/ha alone
compound,measurement,setting,value
"CC1(C)OC(c2ccco2)CN1C(=O)C(Cl)Cl (stereo not drawn) [Antidote No. 15, Oxazolidine, 3-(dichloroacetyl)-5-(2-furanyl)-2,2-dimethyl]","crop injury, assessment in words",[1]; Antidote No. 15 to Herbicide No. 1 ratio increased to 3:1,reduced crop injury even further
same,corn growth reduction (GR),[1]; Herbicide No. 1 0.07 kg/ha + acetochlor + Antidote No. 15,8.7%
same,corn growth reduction (GR),[1]; Herbicide No. 1 0.14 kg/ha + acetochlor + Antidote No. 15,8.2%
same,corn growth reduction (GR),[1]; Herbicide No. 1 0.28 kg/ha + acetochlor + Antidote No. 15,14.5%
same,"safening of corn, assessment in words","[2]; Herbicide Nos. 1 and 6, Table 13",most active overall
same,% Injury Corn,"[3]; Herbicide No.1 0.56 kg/ha + No. 4 2.24 kg/ha, Antidote No. 15 0.18 kg/ha",5%
same,% Injury Corn,"[3]; Herbicide No.1 0.56 kg/ha + No. 4 4.48 kg/ha, Antidote No. 15 0.35 kg/ha",15%
same,% Injury Corn,"[3]; Herbicide No.1 0.56 kg/ha + No. 4 6.78 kg/ha, Antidote No. 15 0.56 kg/ha",0%
same,% Injury Corn,"[3]; Herbicide No.1 2.24 kg/ha + No. 4 2.24 kg/ha, Antidote No. 15 0.18 kg/ha",35%
same,% Injury Corn,"[3]; Herbicide No.1 2.24 kg/ha + No. 4 4.48 kg/ha, Antidote No. 15 0.35 kg/ha",15%
same,% Injury Corn,"[3]; Herbicide No.1 2.24 kg/ha + No. 4 6.78 kg/ha, Antidote No. 15 0.56 kg/ha",15%
COC(=O)c1c(Cl)nn(C)c1S(=O)(=O)NC(=O)Nc1nc(OC)cc(OC)n1 [Herbicide No. 1],% Injury BYG,[4]; Herb. No. 1 4.48 kg/ha,80%
same,% Injury BYG,[4]; Herb. No. 1 6.72 kg/ha,90%
same,% Injury VL,[5]; Herb. No. 1 4.48 kg/ha,90%
same,% Injury VL,[5]; Herb. No. 1 6.72 kg/ha,90%
same,corn growth reduction (GR),"[1]; Herbicide No. 1 0.07 kg/ha + acetochlor, no antidote",9.8%
same,corn growth reduction (GR),"[1]; Herbicide No. 1 0.14 kg/ha + acetochlor, no antidote",13.4%
same,corn growth reduction (GR),"[1]; Herbicide No. 1 0.28 kg/ha + acetochlor, no antidote",20.3%
same,% Injury Corn,"[2]; Herbicide No.1 0.14 kg/ha alone, no antidote",10%
same,% Injury Corn,"[2]; Herbicide No.1 0.56 kg/ha alone, no antidote",55%
same,% Injury Corn,"[2]; Herbicide No.1 2.24 kg/ha alone, no antidote",80%
same,% Injury BYG,[6]; Herb. No. 1 0.56 kg/ha,50%
same,% Injury BYG,[6]; Herb. No. 1 1.12 kg/ha,70%
same,% Injury BYG,[6]; Herb. No. 1 2.24 kg/ha,70%
same,% Injury BYG,[6]; Herb. No. 1 4.48 kg/ha,75%
COC(=O)c1c(Cl)nn(C)c1S(=O)(=O)NC(=O)Nc1nc(OC)cc(OC)n1 [No.1],% Injury Corn,[7]; [8],10%
same,% Injury Corn,[7]; Herbicide No.1 1.12 kg/ha alone,15%
same,% Injury Corn,[3]; Herbicide No.1 0.56 kg/ha + ERADICANE EXTRA 2.24 kg/ha,55%
same,% Injury Corn,[3]; Herbicide No.1 0.56 kg/ha + ERADICANE EXTRA 4.48 kg/ha,65%
same,% Injury Corn,[3]; Herbicide No.1 0.56 kg/ha + ERADICANE EXTRA 6.72 kg/ha,75%
same,% Injury Corn,"[3]; Herbicide No.1 0.56 kg/ha + No. 4 2.24 kg/ha, no antidote",75%
same,% Injury Corn,"[3]; Herbicide No.1 0.56 kg/ha + No. 4 4.48 kg/ha, no antidote",35%
same,% Injury Corn,"[3]; Herbicide No.1 0.56 kg/ha + No. 4 6.72 kg/ha, no antidote",85%
same,% Injury Corn,[3]; [8],70%
same,% Injury Corn,[3]; Herbicide No.1 2.24 kg/ha + ERADICANE EXTRA 2.24 kg/ha,90%
same,% Injury Corn,[3]; Herbicide No.1 2.24 kg/ha + ERADICANE EXTRA 4.48 kg/ha,85%
same,% Injury Corn,[3]; Herbicide No.1 2.24 kg/ha + ERADICANE EXTRA 6.72 kg/ha,95%
same,% Injury Corn,"[3]; Herbicide No.1 2.24 kg/ha + No. 4 2.24 kg/ha, no antidote",90%
same,% Injury Corn,"[3]; Herbicide No.1 2.24 kg/ha + No. 4 4.48 kg/ha, no antidote",70%
same,% Injury Corn,"[3]; Herbicide No.1 2.24 kg/ha + No. 4 6.72 kg/ha, no antidote",90%
same,% Injury Corn,[3]; Herbicide No.1 2.24 kg/ha alone,85%
C=CCN(CC=C)C(=O)C(Cl)Cl [compound 1],% Injury Corn,"[2]; Herbicide No.1 0.56 kg/ha + Herbicide No.6 4.48 kg/ha, antidote rate 0.56 kg/ha",5%
same,% Injury Corn,"[2]; Herbicide No.1 0.56 kg/ha + Herbicide No.6 4.48 kg/ha, antidote rate 2.24 kg/ha",10%
same,% Injury Corn,"[2]; Herbicide No.6 4.48 kg/ha, no Herbicide No.1, antidote rate 0.56 kg/ha",20%
same,% Injury Corn,"[2]; Herbicide No.6 4.48 kg/ha, no Herbicide No.1, antidote rate 2.24 kg/ha",10%
